Where two headings read alike, the source gives them in different places.

Experimental findings from patent publication US20030119748A1 (Idun Pharmaceuticals, Inc., priority 1996, published 2003) are described below.

What all share (type): biochemical
The target in one experiment is T1, CPP32 (Homo sapiens, UniProt P42574).
T1 sequence (P42574 29-277): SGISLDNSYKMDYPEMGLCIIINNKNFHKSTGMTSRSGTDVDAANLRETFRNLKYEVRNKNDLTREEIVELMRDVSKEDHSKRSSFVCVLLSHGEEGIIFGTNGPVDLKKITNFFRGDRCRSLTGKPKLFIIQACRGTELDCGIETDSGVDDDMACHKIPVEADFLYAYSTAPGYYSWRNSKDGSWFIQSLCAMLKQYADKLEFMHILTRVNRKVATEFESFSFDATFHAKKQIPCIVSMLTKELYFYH
Description: Fluorescence enzyme assay, IC50 for CPP32 (Example 1A). As to conditions: Table 1, Formula A; 30 min preincubation, room temperature. The method, then:
(§1) Fluorescence enzyme assays detecting the activity of the compounds of Formula 1 utilizing the recombinant ICE and CPP32 enzymes were performed essentially according to Thomberry et al. (Nature, 356:768:774 (1992)) and Nicholson et al. (Nature, 376:37-43 (1995)) respectively, (herein incorporated by reference) in 96 well microtiter plates. The substrate for these assays was Acetyl-Tyr-Val-Ala-Asp-amino-4-methylcoumarin (AMC) for the ICE assay and Acetyl-Asp-Glu-Val-Asp-amino-4-methylcoumarin for the CPP32 and Mch5 assays. Enzyme reactions were run in ICE buffer (25 mM HEPES, 1 mM EDTA, 0.1% CHAPS, 10% sucrose, pH 7.5) containing 2 mM DTT at room temperature in duplicate. The assays were performed by mixing the following components:
(§2) 50 μl of either ICE, Mch2, Mch5 or CPP32 (18.8, 38, 8.1 and 0.153 nM concentrations, respectively) enzyme in ICE buffer containing either 8.0 (ICE, Mch2, CPP32) or 20 (Mch5) mM DTT;
(§3) 50 μl of either the compound of Formula 1 or ICE buffer (control); and
(§4) 100 μl of 20 μM substrate.
(§5) The enzyme and the compound of Formula 1 to be assayed were preincubated in the microtitre plate wells for 30 minutes at room temperature prior to the addition of substrate to initiate the reaction. Fluorescent AMC product formation was monitored for one hour at room temperature by measuring the fluorescence emission at 460 nm using an excitation wavelength of 360 nm. The fluorescence change in duplicate (control) wells were averaged and the mean values were plotted as a function of inhibitor concentration to determine the inhibitor concentration producing 50% inhibition (IC50).

In experiment [1] the target is T2, mICE (Mus musculus, UniProt P29452).
T2 sequence (P29452 119-402): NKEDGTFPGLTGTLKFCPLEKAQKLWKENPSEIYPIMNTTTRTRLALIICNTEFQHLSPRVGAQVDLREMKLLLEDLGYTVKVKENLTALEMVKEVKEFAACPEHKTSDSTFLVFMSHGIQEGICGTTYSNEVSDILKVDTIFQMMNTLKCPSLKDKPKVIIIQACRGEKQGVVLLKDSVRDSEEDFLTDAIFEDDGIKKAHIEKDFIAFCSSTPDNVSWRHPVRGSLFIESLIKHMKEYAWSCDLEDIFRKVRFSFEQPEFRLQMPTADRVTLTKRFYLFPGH
Description: Fluorescence enzyme assay, IC50 for ICE (Example 1A). The method, then:
as §1, §2, §3, §4, §5

Experiment [2] deals with T2, mICE. Description: Dissociation constant Ki for irreversible inhibitors, continuous assay (Example 1B). The following applies: compounds of Formula B and Formula C, procedure of Example 1B. The text has this:
B. Determination of the Dissociation Constant K1 and Irreversible Rate Constant k3 for Irreversible Inhibitors
For the irreversible inhibition of a ICE/ced-3 Family Protease enzyme with a competitive irreversible inhibitor; using the model represented by the following formulas: [drawing 4]
The product formation at time t may be expressed as: [drawing 5]
where E, I, EI, and E-I denote the active enzyme, inhibitor, non-covalent enzyme-inhibitor complex and covalent enzyme-inhibitor adduct, respectively. The K1 value is the overall dissociation constant of reversible binding steps, and k3 is the irreversible rate constant. The [S] and Ks values are the substrate concentration and the dissociation constant of the substrate bound to the enzyme, respectively. [E]^T is the total enzyme concentration.
The above equations were used to determine the K1 and k3 values of a given inhibitor bound to a ICE/ced-3 family protease. Thus, a continuous assay was run for sixty minutes at various concentrations of the inhibitor and the substrate. The assay was formulated essentially the same as described in Example 1A above, except that the reaction was initiated by adding the enzyme to the substrate-inhibitor mixture. The K1 and k3 values were obtained by simulating the product AMC formation as a function of time according to Equation 1. The reference compound for this assay was Cbz-ValAlaAsp-CH2F.

[3] abbreviates: Table 1, Formula A, 30 min preincubation, room temperature, read-out: mICE IC50.

The term IC50 denotes the concentration that gives 50% inhibition. For the molecule `C[C@H](NC(=O)c1cc2ccccc2n1Cc1ccccc1)C(=O)N[C@H](C=O)CC(=O)O` [Example 24, (3S)-3-[(1-Benzylindole-2-Carbonyl)Alaninyl]Amino-4-Oxo-Butanoic Acid], the half-maximal inhibitory concentration (IC50) was greater than 50000 nM at CPP32 and 393 nM at mICE [1] (setting [3]).

On to `CC(C)C(NC(=O)c1cc2ccccc2n1C)C(=O)NC(CC(=O)O)C(=O)COc1c(F)c(F)cc(F)c1F` (centres unmarked) [Example 112, N-[(1-methyl-indole-2-cabonyl)valinyl]-3-amino-4-oxo-5-(2,3,5,6-tetrafluorophenyloxy)-pentanoic Acid], for which the IC50 on mICE [1] (read-out: IC50 (mICE)) was less than 1000 nM. Take `C[C@H](NC(=O)c1cc2ccccc2n1C)C(=O)N[C@H](C=O)CC(=O)O` [Example 4, (3S)-3-[(1-Methylindole-2-Carbonyl)Alaninyl]Amino-4-Oxobutanoic Acid]: the values for the IC50 against CPP32 and at mICE [1] (setting [3]) were greater than 10000 nM and 177 nM, respectively. As for `CC(C)C(NC(=O)c1cc2ccccc2n1CC(=O)O)C(=O)NC(CC(=O)O)C(=O)COc1c(F)c(F)cc(F)c1F` (centres unmarked) [Example 118, N-{[1-(carboxymethyl)-indole-2-cabonyl]valinyl}-3-amino-4-oxo-5-(2,3,5,6-tetrafluorophenyloxy)-pentanoic Acid], on mICE [1] (read-out: IC50 (mICE)), the half-maximal inhibitory concentration (IC50) was less than 1000 nM. On to `CC(C)Cc1c(C(=O)NC(C(=O)NC(CC(=O)O)C(=O)COc2c(F)c(F)cc(F)c2F)C(C)C)n(C)c2ccccc12` (centres unmarked) [Example 83, N-[(1-methyl-3-isobutyl-indole-2-cabonyl)valinyl]-3-amino-4-oxo-5-(2,3,5,6-tetrafluorophenyloxy)-pentanoic Acid], for which, on mICE [1] (read-out: IC50 (mICE)), the IC50 is less than 1000 nM. Take `CC(C)Cc1c(C(=O)NC(CC2CCCCC2)C(=O)NC(CC(=O)O)C(=O)COC(=O)c2c(Cl)cccc2Cl)n(C)c2ccccc12` (centres unmarked) [Example 99]: at mICE [1] (read-out: IC50 (mICE)), the IC50 was less than 1000 nM.

In the case of `CC(C)Cc1c(C(=O)NC(C(=O)NC(CC(=O)O)C(=O)COc2ccccc2F)C(C)C)n(C)c2ccccc12` (centres unmarked) [Example 87, N-[(1-methyl-3-isobutyl-indole-2-cabonyl)valinyl]-3-amino-4-oxo-5-(2-fluorophenyloxy)-pentanoic Acid], the IC50 at mICE [1] (read-out: IC50 (mICE)) was less than 1000 nM. On the same count and under the same terms, with `Cc1c(C(=O)NC(C(=O)NC(CC(=O)O)C(=O)COc2cc3ccccc3cc2-c2ncc[nH]2)C(C)C)n(C)c2ccccc12` (centres unmarked) [Example 80, N-[(1,3-dimethyl-indole-2-cabonyl)valinyl]-3-amino-5-[3-(imidazol-2-yl)-naphthyl-2-oxy]-4-oxo-pentanoic Acid] the figure was less than 1000 nM; with `CC(C)Cc1c(C(=O)NC(CC(C)C)C(=O)NC(CC(=O)O)C(=O)COC(=O)c2c(Cl)cccc2Cl)n(C)c2ccccc12` (centres unmarked) [Example 90, N-[(1-methyl-3-isobutyl-indole-2-cabonyl)leucinyl]-3-amino-5-(2,6-dichlorobenzoyl) oxy-4-oxo Pentanoic Acid], less than 1000 nM. Consider `CC(C)[C@H](NC(=O)c1cc2ccccc2n1CC(=O)O)C(=O)NC(CC(=O)O)C(=O)CF` (some centres unmarked) [Example 58, N-[(1-(Carboxymethyl)Indole-2-Carbonyl)Valinyl]-3-Amino-4-Oxo-5-Fluoropentanoic Acid], for which the Ki on mICE [2] is less than 1000 nM. Take `CC(C)Cc1c(C(=O)NC(CC(C)C)C(=O)NC(CC(=O)O)C(=O)COc2c(F)c(F)cc(F)c2F)n(C)c2ccccc12` (centres unmarked) [Example 92, N-[(1-methyl-3-isobutyl-indole-2-cabonyl)leucinyl]-3-amino-4-oxo-5-(2,3,5,6-tetrafluorophenyloxy)-pentanoic Acid]: the IC50 at mICE [1] (read-out: IC50 (mICE)) is less than 1000 nM. As to `CC(NC(=O)c1cc2ccccc2n1CCC(=O)O)C(=O)NC(C=O)CC(=O)O` [Example 33, (3S)-3-(1-(2′-Carboxyethyl)Indole-2-Carbonyl)Alaninyl] Amino-4-Oxobutanoic Acid], the IC50 at CPP32 is greater than 50000 nM; at mICE [1] (setting [3]) it was 198 nM.

For the molecule `CC(NC(=O)c1cc2ccccc2n1CC(=O)O)C(=O)N[C@H](C=O)CC(=O)O` (stereo partly drawn) [Example 30, (3S)-3-[(1-(Carboxymethyl)Indole-2-Carbonyl)Alaninyl] Amino-4-Oxobutanoic Acid], the IC50 against CPP32 was greater than 50000 nM; on mICE [1] (setting [3]), 1630 nM. On the same counts, the results for `CC(C)C(NC(=O)c1cc2ccccc2n1C)C(=O)NC(C=O)CC(=O)O` [Example 10, (3S)-3-[1-Methylindole-2-Carbonyl)Vainyl]Amino-4-Oxo-Butanoic Acid] are 2480 nM and 531 nM. As to `CC(C)Cc1c(C(=O)NC(CC2CCCCC2)C(=O)NC(CC(=O)O)C(=O)COc2c(F)c(F)cc(F)c2F)n(C)c2ccccc12` (centres unmarked) [Example 97, N-[(1-methyl-3-isobutyl-indole-2-cabonyl)cyclohexylalaninyl]-3-amino-4-oxo-5-(2,3,5,6-tetrafluorophenyloxy)-pentanoic Acid], the 50% inhibitory concentration (IC50) on mICE [1] (read-out: IC50 (mICE)) is less than 1000 nM.

Turning to `CC(C)Cc1c(C(=O)NC(CC2CCCCC2)C(=O)NC(CC(=O)O)C(=O)COc2cc(C(F)(F)F)nn2-c2ccccc2)n(C)c2ccccc12` (centres unmarked) [Example 101, N-[(1-methyl-3-isobutyl-indole-2-cabonyl)cyclohexylalaninyl]-3-amino-4-oxo-5-[1-phenyl-3-(trifluoromethyl)pyrazol-5-yloxy]-pentanoic Acid], on mICE [1] (read-out: IC50 (mICE)), the IC50 was less than 1000 nM. Consider `C=CCCn1c(C(=O)NC(C(=O)NC(C=O)CC(=O)O)C(C)C)cc2ccccc21` [Example 27, (3S)-3-[(1-(4′-Butenyl)indole-2-Carbonyl)Valinyl]Amino-4-Oxobutanoic Acid], for which the IC50 turned out to be 1450 nM at CPP32 and 313 nM on mICE [1] (setting [3]). For `Cc1c(C(=O)NC(C(=O)NC(CC(=O)O)C(=O)COc2c(F)c(F)cc(F)c2F)C(C)C)n(C)c2ccccc12` (centres unmarked) [Example 109, N-[(1,3-dimethyl-indole-2-cabonyl)valinyl]-3-amino-4-oxo-5-(2,3,5,6-tetrafluorophenyloxy)-pentanoic Acid], the IC50 at mICE [1] (read-out: IC50 (mICE)) was less than 1000 nM. `Cn1c(C(=O)NCC(=O)N[C@H](C=O)CC(=O)O)cc2ccccc21` [Example 21, (3S)-3-[(1-Methylindole-2-Carbonyl)Glycinyl]-Amino-4-Oxo-Butanoic Acid]: the results for the IC50 against CPP32 and on mICE [1] (setting [3]) were greater than 50000 nM and 34700 nM, respectively. Turning to `CC(C)C(NC(=O)c1cc2cc(F)ccc2n1C)C(=O)NC(CC(=O)O)C(=O)COc1c(F)c(F)cc(F)c1F` (centres unmarked) [Example 115, N-[(5-fluoro-1-methyl-indole-2-cabonyl)valinyl]-3-amino-4-oxo-5-(2,3,5,6-tetrafluorophenyloxy)-pentanoic Acid], the IC50 on mICE [1] (read-out: IC50 (mICE)) is less than 1000 nM. For `Cn1c(C(=O)N2CCC[C@H]2C(=O)N[C@H](C=O)CC(=O)O)cc2ccccc21` [Example 7, (3S)-3-[(1-Methylindole-2-Carbonyl)Prolinyl]Amino-4-Oxo-Butanoic Acid], the half-maximal inhibitory concentration (IC50) was greater than 50000 nM against CPP32 and 11700 nM at mICE [1] (setting [3]). As to `CC(C)Cc1c(C(=O)NC(CC(C)C)C(=O)NC(CC(=O)O)C(=O)COP(=O)(c2ccccc2)c2ccccc2)n(C)c2ccccc12` (centres unmarked) [Example 94, N-[(1-methyl-3-isobutyl-indole-2-cabonyl)leucinyl]-3-amino-5-(diphenylphosphoroxy)-4-oxo-pentanoic Acid], the IC50 on mICE [1] (read-out: IC50 (mICE)) is less than 1000 nM.

As to `CC(C)C[C@H](NC(=O)c1cc2ccccc2n1C)C(=O)N[C@H](C=O)CC(=O)O` [Example 13, (3S)-3-[(1-Methylindole-2-Carbonyl)Leucinyl]Amino-4-Oxo-Butanoic Acid], the half-inhibitory concentration (IC50) amounted to 5620 nM against CPP32 and 5520 nM at mICE [1] (setting [3]).
